Laboratory results: PubChem BioAssay (NCI)
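Growth conditions: 96-well plates. Treatment: test compound, 48 hours, 5 concentrations. Analysis: linear interpolation between bracketing concentrations; unreached endpoints set to highest concentration. TGI: concentration producing complete growth inhibition.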

Key:
Assay in all cases: NCI anticancer screen, dose series, 48 h
786-0 renal = tested on: 786-0 renal
A549 NSCLC = tested on: A549 NSCLC
ACHN renal = tested on: ACHN renal
BT-549 breast = tested on: BT-549 breast
CAKI-1 renal = tested on: CAKI-1 renal
CCRF-CEM leukemia = tested on: CCRF-CEM leukemia
COLO 205 colon = tested on: COLO 205 colon
DU-145 prostate = tested on: DU-145 prostate
EKVX NSCLC = tested on: EKVX NSCLC
HCC-2998 colon = tested on: HCC-2998 colon
HCT-116 colon = tested on: HCT-116 colon
HCT-15 colon = tested on: HCT-15 colon
HL-60(TB) leukemia = tested on: HL-60(TB) leukemia
HOP-62 NSCLC = tested on: HOP-62 NSCLC
HOP-92 NSCLC = tested on: HOP-92 NSCLC
HS 578T breast = tested on: HS 578T breast
HT29 colon = tested on: HT29 colon
IGROV1 ovarian = tested on: IGROV1 ovarian
K-562 leukemia = tested on: K-562 leukemia
KM12 colon = tested on: KM12 colon
LOX IMVI melanoma = tested on: LOX IMVI melanoma
M14 melanoma = tested on: M14 melanoma
MALME-3M melanoma = tested on: MALME-3M melanoma
MCF7 breast = tested on: MCF7 breast
MDA-MB-231 breast = tested on: MDA-MB-231 breast
MDA-MB-435 = tested on: MDA-MB-435
MDA-N = tested on: MDA-N
MOLT-4 leukemia = tested on: MOLT-4 leukemia
NCI-H226 lung = tested on: NCI-H226 lung
NCI-H23 lung = tested on: NCI-H23 lung
NCI-H460 lung = tested on: NCI-H460 lung
NCI-H522 lung = tested on: NCI-H522 lung
NCI/ADR-RES ovarian = tested on: NCI/ADR-RES ovarian
OVCAR-4 ovarian = tested on: OVCAR-4 ovarian
OVCAR-8 ovarian = tested on: OVCAR-8 ovarian
PC-3 prostate = tested on: PC-3 prostate
RPMI-8226 leukemia = tested on: RPMI-8226 leukemia
RXF 393 renal = tested on: RXF 393 renal
SF-268 CNS = tested on: SF-268 CNS
SF-295 CNS = tested on: SF-295 CNS
SF-539 CNS = tested on: SF-539 CNS
SK-MEL-28 melanoma = tested on: SK-MEL-28 melanoma
SK-MEL-5 melanoma = tested on: SK-MEL-5 melanoma
SK-OV-3 ovarian = tested on: SK-OV-3 ovarian
SN12C renal = tested on: SN12C renal
SNB-19 CNS = tested on: SNB-19 CNS
SNB-75 CNS = tested on: SNB-75 CNS
SR leukemia = tested on: SR leukemia
SW-620 colon = tested on: SW-620 colon
T-47D breast = tested on: T-47D breast
TK-10 renal = tested on: TK-10 renal
UACC-257 melanoma = tested on: UACC-257 melanoma
UACC-62 melanoma = tested on: UACC-62 melanoma
UO-31 renal = tested on: UO-31 renal

Measured: TGI

N#Cc1ccc(-c2nc(C#N)c(N)o2)cc1
> 10 µM: all assays above
